Residues, ends and D or L forms follow the SMILES beside them.
Key:
[1] = body weight and food intake in mice with diet induced obesity (mouse DIO), osmotic pump; type: in vivo
Protocol: The effect of FN38 and related compounds on body weight and food intake in obese subjects was investigated. Mice having diet induced obesity (DIO) were used. All in vivo tests were performed with peripheral injections of peptide. […] 4-week-old male C57BL/6 mice were group housed with water and a standard pelleted mouse chow diet available ad libitum, except as noted, and were maintained on a on a high fat diet (58% kcal from fat) for 4 weeks prior to the experiment. At the end of fattening period, osmotic pumps were implanted interscapularly under anesthesia. Mice received pumps continuously delivering vehicle (50% DMSO in water or saline) or polypeptide at the dose indicated. Food intake and body weight measurements were obtained weekly.

NIH/Swiss mice = experiment: acute food intake assay, lean overnight-fasted NIH/Swiss mice, intraperitoneal injection; type: in vivo, mouse; details: for Food Intake Inhibition: mouse assay, dose of 200 mg/kg, measured at 60 minutes
Protocol: The effect of NMX Peptides, FNX Peptides or NMX Receptor agonists on food intake when systemically administered was investigated using an acute food intake assay. This assay measured food consumption in lean subjects. Lean, group-housed, overnight-fasted NIH/Swiss mice. All in vivo tests were performed with peripheral injections of peptide. […] The dose-response data are presented herein. The protocol is described below. Female NIH/Swiss mice (8-24 weeks old) were group housed with a 12:12 hour light:dark cycle, with lights on at 0300. Water and a standard pelleted mouse chow diet are available ad libitum, except as noted. Animals are fasted starting at approximately 1530 hrs, 1 day prior to experiment. At time=0 min, all animals are given an intraperitoneal injection of vehicle or polypeptide in a volume of 200 uL/mouse and immediately given a pre-weighed amount (10-15 g) of the standard chow. Food is removed and weighed at 30, 60, and 120 minutes to determine the amount of food consumed. The effects of treatment on food intake are expressed as % change relative to control.

[2] = brush border membrane (BBM) stability assay; type: in vitro ADME, human; details: brush border membrane extract (e.g. kidney); percent compound remaining after a 5 hour incubation, human brush border membrane assay; read-out: hBBM
Protocol: Some exemplary NMX Peptides and FNX Peptides were tested for stability in a brush border membrane (BBM) assay as described herein. To determine the enzymatic stability of peptide hormones peptides are incubated with a preparation of human brush border membranes extract (e.g., kidney), and the stability of the peptide is determined by measuring concentration of the intact peptide at specific intervals. The brush border membrane extract contains dipeptidyl peptidase IV (DPP-IV), neutral endopeptidases, peptidyl-dipeptidase A, carboxypeptidases and aminopeptidases. These are the primary enzymes that degrade peptides in vivo and are found in the kidneys, liver, lungs and pancreas. Resistance against these human proteases would increase peptide half-life. In the BBM assay test peptide was subjected to digestion over a period of five (5) hours with human brush border membrane extracts, e.g. kidney, at 37° C. At desired timepoints digestion was stopped by addition of quench solution, typically 50% ACN, 1% FA. After centrifugation to remove membrane debris, supernatant was subjected to mass spectrometry using a selected ion scan for the intact molecule of interest. Values are expressed as a percent of stable. A value of at least 80 or greater is regarded as an extremely stable molecule. A value of at least 70 or greater is a molecule with significant stability.

Structure (SMILES)	Food Intake Inhibition (NIH/Swiss mice) [%]	remaining at 5 h [2] [%]	also measured
CC[C@H](C)[C@H](NC(=O)[C@@H](NC(=O)CNC(=O)CNC(=O)[C@@H]1CCCN1C(=O)[C@@H](NC(=O)[C@H](CCC(N)=O)NC(=O)[C@@H](NC(=O)[C@H](CCC(=O)O)NC(=O)[C@H](CCC(=O)O)NC(=O)[C@H](CC(=O)O)NC(=O)[C@@H](N)CO)C(C)C)C(C)C)C(C)C)C(=O)N[C@@H](CO)C(=O)N[C@@H](CC(N)=O)C(=O)NCC(=O)N[C@@H](Cc1ccc(O)cc1)C(=O)N[C@@H](Cc1ccccc1)C(=O)N[C@@H](CC(C)C)C(=O)N[C@@H](Cc1ccccc1)C(=O)N[C@@H](CCCNC(=N)N)C(=O)N1CCC[C@H]1C(=O)N[C@@H](CCCNC(=N)N)C(=O)N[C@@H](CC(N)=O)C(N)=O [Compound 163452, reference compound] (H-SDEEVQVPGGVISNGYFLFRPRN-NH2; N-terminus assumed)	–	–	body weight gain and food intake in the DIO assay ([1]; 75 nmol/kg/day): decreased body weight gain and food intake; long acting effect in mouse DIO ([1]; mouse DIO): did not have a long acting effect; d 14 BWt loss ([1]; mouse DIO, day 14): 1.5%; reduction of food intake (NIH/Swiss mice; administered systemically (i.p. to mice), dose and time not stated): up to 95%; FI (60′, 200) (NIH/Swiss mice; food intake, % change relative to control, 60 min, dose 200): −88%; ED50 at t = 60 (NIH/Swiss mice; food intake, t = 60): 22 µg/kg; ED50 for effect on food intake (NIH/Swiss mice; over 30 min, i.p., mice): 9.0 nmol/kg
CC(C)C[C@H](NC(=O)[C@H](CCCCN)NC(=O)[C@H](CCC(N)=O)NC(=O)[C@@H](NC(=O)[C@H](CCCCN)NC(=O)[C@H](CO)NC(=O)[C@@H](N)Cc1ccc(O)cc1)[C@@H](C)O)C(=O)NCC(=O)N[C@@H](CCCCN)C(=O)N[C@@H](CO)C(=O)N[C@@H](CC(N)=O)C(=O)N[C@H](C(=O)N[C@H](C(=O)N[C@@H](CCC(=O)O)C(=O)N[C@@H](CCC(=O)O)C(=O)N[C@@H](CC(C)C)C(=O)N[C@@H](CCC(N)=O)C(=O)N[C@@H](CO)C(=O)N1CCC[C@H]1C(=O)N[C@@H](Cc1ccccc1)C(=O)N[C@@H](C)C(=O)N[C@@H](CO)C(=O)N[C@@H](CCC(N)=O)C(=O)N[C@@H](CO)C(=O)N[C@@H](CCCNC(=N)N)C(=O)NCC(=O)N[C@@H](Cc1ccc(O)cc1)C(=O)N[C@@H](Cc1ccccc1)C(=O)N[C@@H](CC(C)C)C(=O)N[C@@H](Cc1ccccc1)C(=O)N[C@@H](CCCNC(=N)N)C(=O)N1CCC[C@H]1C(=O)N[C@@H](CCCNC(=N)N)C(=O)N[C@@H](CC(N)=O)C(N)=O)C(C)C)C(C)C [Des-(Phe1,Leu2,Phe3,His4)FN38] (H-YSKTQKLGKSNVVEELQSPFASQSRGYFLFRPRN-NH2; N-terminus assumed)	−58	41	–
CC(C)C[C@H](NC(=O)[C@H](CCC(=O)O)NC(=O)[C@H](CCC(=O)O)NC(=O)[C@@H](NC(=O)[C@@H](NC(=O)[C@H](CC(N)=O)NC(=O)[C@H](CO)NC(=O)[C@H](CCCCN)NC(=O)CNC(=O)[C@H](CC(C)C)NC(=O)[C@@H](N)CCCCN)C(C)C)C(C)C)C(=O)N[C@@H](CCC(N)=O)C(=O)N[C@@H](CO)C(=O)N1CCC[C@H]1C(=O)N[C@@H](Cc1ccccc1)C(=O)N[C@@H](C)C(=O)N[C@@H](CO)C(=O)N[C@@H](CCC(N)=O)C(=O)N[C@@H](CO)C(=O)N[C@@H](CCCNC(=N)N)C(=O)NCC(=O)N[C@@H](Cc1ccc(O)cc1)C(=O)N[C@@H](Cc1ccccc1)C(=O)N[C@@H](CC(C)C)C(=O)N[C@@H](Cc1ccccc1)C(=O)N[C@@H](CCCNC(=N)N)C(=O)N1CCC[C@H]1C(=O)N[C@@H](CCCNC(=N)N)C(=O)N[C@@H](CC(N)=O)C(N)=O [Des-(Phe1-Gln9)FN38] (H-KLGKSNVVEELQSPFASQSRGYFLFRPRN-NH2; N-terminus assumed)	−70	55	–
CC(C)C[C@H](NC(=O)[C@H](CCCCN)NC(=O)[C@H](CCC(N)=O)NC(=O)[C@@H](NC(=O)[C@H](CCCCN)NC(=O)[C@H](CO)NC(=O)[C@H](Cc1ccc(O)cc1)NC(=O)[C@H](Cc1c[nH]cn1)NC(=O)[C@H](Cc1ccccc1)NC(=O)[C@H](CC(C)C)NC(=O)[C@@H](N)Cc1ccccc1)[C@@H](C)O)C(=O)NCC(=O)N[C@@H](CCCCN)C(=O)N[C@@H](CO)C(=O)N[C@@H](CC(N)=O)C(=O)N[C@H](C(=O)N[C@H](C(=O)N[C@@H](CCC(=O)O)C(=O)N[C@@H](CCC(=O)O)C(=O)N[C@@H](CC(C)C)C(=O)N[C@@H](CCC(N)=O)C(=O)N[C@@H](CO)C(=O)N1CCC[C@H]1C(=O)N[C@@H](CO)C(=O)N[C@@H](CCCNC(=N)N)C(=O)NCC(=O)N[C@@H](Cc1ccc(O)cc1)C(=O)N[C@@H](Cc1ccccc1)C(=O)N[C@@H](CC(C)C)C(=O)N[C@@H](Cc1ccccc1)C(=O)N[C@@H](CCCNC(=N)N)C(=O)N1CCC[C@H]1C(=O)N[C@@H](CCCNC(=N)N)C(=O)N[C@@H](CC(N)=O)C(N)=O)C(C)C)C(C)C [Des-(Phe24,Ala25,Ser26,Gln27)-FN38] (H-FLFHYSKTQKLGKSNVVEELQSPSRGYFLFRPRN-NH2; N-terminus assumed)	−83	61	–
CC(C)C[C@H](NC(=O)[C@H](CCCCN)NC(=O)[C@H](Cc1ccc(O)cc1)NC(=O)[C@H](Cc1c[nH]cn1)NC(=O)[C@H](Cc1ccccc1)NC(=O)[C@H](CC(C)C)NC(=O)[C@@H](N)Cc1ccccc1)C(=O)NCC(=O)N[C@@H](CCCCN)C(=O)N[C@@H](CO)C(=O)N[C@@H](CC(N)=O)C(=O)N[C@H](C(=O)N[C@H](C(=O)N[C@@H](CCC(=O)O)C(=O)N[C@@H](CCC(=O)O)C(=O)N[C@@H](CC(C)C)C(=O)N[C@@H](CCC(N)=O)C(=O)N[C@@H](CO)C(=O)N1CCC[C@H]1C(=O)N[C@@H](Cc1ccccc1)C(=O)N[C@@H](C)C(=O)N[C@@H](CO)C(=O)N[C@@H](CCC(N)=O)C(=O)N[C@@H](CO)C(=O)N[C@@H](CCCNC(=N)N)C(=O)NCC(=O)N[C@@H](Cc1ccc(O)cc1)C(=O)N[C@@H](Cc1ccccc1)C(=O)N[C@@H](CC(C)C)C(=O)N[C@@H](Cc1ccccc1)C(=O)N[C@@H](CCCNC(=N)N)C(=O)N1CCC[C@H]1C(=O)N[C@@H](CCCNC(=N)N)C(=O)N[C@@H](CC(N)=O)C(N)=O)C(C)C)C(C)C [Des-(Ser6,Lys7,Thr8,Gln9)FN38] (H-FLFHYKLGKSNVVEELQSPFASQSRGYFLFRPRN-NH2; N-terminus assumed)	−72	28	–
CC(C)C[C@H](NC(=O)[C@H](CCCCN)NC(=O)[C@H](CCC(N)=O)NC(=O)[C@@H](NC(=O)[C@H](CCCCN)NC(=O)[C@H](CO)NC(=O)[C@H](Cc1ccc(O)cc1)NC(=O)[C@H](Cc1c[nH]cn1)NC(=O)[C@H](Cc1ccccc1)NC(=O)[C@H](CC(C)C)NC(=O)[C@@H](N)Cc1ccccc1)[C@@H](C)O)C(=O)NCC(=O)N[C@@H](CCCCN)C(=O)N[C@@H](CO)C(=O)N[C@@H](CC(N)=O)C(=O)N[C@@H](CCC(=O)O)C(=O)N[C@@H](CCC(=O)O)C(=O)N[C@@H](CC(C)C)C(=O)N[C@@H](CCC(N)=O)C(=O)N[C@@H](CO)C(=O)N1CCC[C@H]1C(=O)N[C@@H](Cc1ccccc1)C(=O)N[C@@H](C)C(=O)N[C@@H](CO)C(=O)N[C@@H](CCC(N)=O)C(=O)N[C@@H](CO)C(=O)N[C@@H](CCCNC(=N)N)C(=O)NCC(=O)N[C@@H](Cc1ccc(O)cc1)C(=O)N[C@@H](Cc1ccccc1)C(=O)N[C@@H](CC(C)C)C(=O)N[C@@H](Cc1ccccc1)C(=O)N[C@@H](CCCNC(=N)N)C(=O)N1CCC[C@H]1C(=O)N[C@@H](CCCNC(=N)N)C(=O)N[C@@H](CC(N)=O)C(N)=O [Des-Val16,Val17-FN38] (H-FLFHYSKTQKLGKSNEELQSPFASQSRGYFLFRPRN-NH2; N-terminus assumed)	−60	73	–
